Measured values as given in patent EP1614683B1, “Indazole compounds and pharmaceutical compositions for inhibiting protein kinases, and methods for their use” (priority 1999, dated 2001).
Values joined by “and” are separate entries in the source; they are usually repeats but may differ in a detail not shown here. Identical values can stand only once. Like-named read-outs stand apart in the source and are kept apart here.

Tests used:
[1] = tested on: VEGF dependent retinal neovascularization; assay: Neonatal rat model of retinopathy of prematurity; assay type: in vivo; conditions: Model ROP
Procedure: A second model of VEGF dependent retinal neovascularization was employed to evaluate the activities of this series of compounds. […] The animals are exposed for 24 hours to a concentration of 50% oxygen followed by 24 hours at a concentration of 10% oxygen. This alternating cycle of hyperoxia followed by hypoxia is repeated 7 times after which the animals are removed to room air (P14). Compounds are administered via intravitreal injection upon removal to room air and the animals are sacrificed 6 days later (P20). The isolated retinas are then isolated, stained mounted and analyzed as detail above in the development model. The effectiveness was also graded as is described for the development model.

LCK tyrosine kinase = LCK tyrosine kinase (Homo sapiens, UniProt P06239, C224D/P223M); assay: LCK spectrophotometric assay; assay type: biochemical; conditions: Table 1; compound concentration 1 µM; read-out: Lck-P* (% inhibition)
Chain of LCK tyrosine kinase (P06239 223-509 P223M/C224D): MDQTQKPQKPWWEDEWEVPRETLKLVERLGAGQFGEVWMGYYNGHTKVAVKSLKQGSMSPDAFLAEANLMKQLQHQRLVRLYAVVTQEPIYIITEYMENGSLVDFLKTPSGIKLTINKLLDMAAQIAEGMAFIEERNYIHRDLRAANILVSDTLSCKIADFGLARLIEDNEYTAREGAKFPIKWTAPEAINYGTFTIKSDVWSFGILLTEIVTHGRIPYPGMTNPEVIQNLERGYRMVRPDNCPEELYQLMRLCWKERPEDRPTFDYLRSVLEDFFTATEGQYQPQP
Procedure: The spectrophotometric assay was carried out as described above for VEGF-R2, except for the following changes in concentration: LCK = 60 nM, MgCl2 = 0 mM, poly(E4Y1) = 20 mM.

in vitro = in vitro ADME, human; conditions: 2 h
How it was run: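 HLM diluted to 5 mg/mL in 100 mM KPO4, preincubated 10 min at 37 °C with NADPH-regenerating system. Compound (5 µM final) incubated at 37 °C in triplicate, sampled at 0 and 2 h into ice-cold acetonitrile, then LC-MS analysis.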

human FGF-R1 = human FGF-R1 (Homo sapiens, UniProt P11362, C488A/C584S/L457V); assay: FGF-R spectrophotometric assay; assay type: biochemical; conditions: Table 1; compound concentration 1 µM; read-out: FGF-P* (% inhibition)
Chain of human FGF-R1 (P11362 456-766 L457V/C488A/C584S): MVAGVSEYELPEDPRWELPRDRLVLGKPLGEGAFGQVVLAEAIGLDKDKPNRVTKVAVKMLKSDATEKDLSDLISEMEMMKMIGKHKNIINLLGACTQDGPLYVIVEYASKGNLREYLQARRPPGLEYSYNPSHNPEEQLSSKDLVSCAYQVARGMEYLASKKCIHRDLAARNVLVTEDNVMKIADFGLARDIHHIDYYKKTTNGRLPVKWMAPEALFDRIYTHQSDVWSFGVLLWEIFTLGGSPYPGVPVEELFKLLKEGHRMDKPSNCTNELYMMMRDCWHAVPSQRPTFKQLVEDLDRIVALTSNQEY
Procedure: The spectrophotometric assay was carried out as described above for VEGF-R2, except for the following changes in concentration: FGF-R = 50 nM, ATP = 2 mM, and poly(E4Y1) =15 mM.

[2] = tested on: human umbilical vein endothelial cells (HUVEC); assay: HUVEC proliferation assay (VEGF-stimulated, MTT); assay type: cell-based; conditions: Homo sapiens, HUVEC, Table 1
in vivo = conditions: mouse, plasma, pH 2.3
[3] = intravitreal, 1 mg/ml, vehicle PEG/water 70:30
[4] = intravitreal, 5 mg/ml, vehicle PEG/water 70:30
[5] = intravitreal, 10 mg/ml, vehicle PEG/water 70:30
[6] = + albumin, read-out: HUVEC + albumin IC50
[7] = mouse, in vivo, ip, 25 mg/kg, pH 2.3
[8] = mouse, in vivo, po, 50 mg/kg, pH 2.3

With `CC(=O)c1cccc(C(=O)Nc2cccc(N(C)c3ccc4c(/C=C/c5ccc6c(c5)OCO6)n[nH]c4c3)c2)c1` [16(e), 3-Acetyl-N-(3-{[3-(2-benzo[1,3]dioxol-5-yl-vinyl)-1H-indazol-6-yl]-methyl-amino}-phenyl)-benzamide] the “% Inhibition” value [1, 3] was 16%, the “% Inhibition” value [1, 4] was 36% and 37% and the “Initial Evaluation” value [1, 4] was “++ (two pluses being judged to be approximately 25-75 % regression)”. For the same compound, the “% Inhibition” value [1, 5] was 54%, the “Initial Evaluation” value [1, 5] was “+++ (three pluses give to retinas with near total regression (approximately 75% or greater))” and the inhibition at 1 µM (LCK tyrosine kinase) was 8%. It also gave a remaining at 2 h, 5 µM (in vitro; human liver microsomes, 5 µM test compound, 37 °C, read-out: % remain (HLM, 2 h)) of 40%, an inhibition at 1 µM (human FGF-R1) of 59% and an IC50 [2, 6] of 106 nM. It also gave an IC50 ([2]; read-out: HUVEC IC50) of 4.9 nM.
In the case of `O=C(c1cccc(NC(=O)c2cccc3[nH]ccc23)c1)c1ccc2c(/C=C/c3ccccn3)n[nH]c2c1` [41 (d)], the “% Inhibition” value [1, 3] is reported as 0%, the AUCleast [7] is reported as 10324 ng·h/mL and the T1/2 [7] is reported as 2.8 h. It also gave an AUCleast [8] of 7072 ng·h/mL and a T1/2 [8] of 1.5 h.
For `O=C(Nc1cccc(C(=O)c2ccc3c(/C=N/n4cccc4)n[nH]c3c2)c1)c1ccccc1` [Example 45(b), 6-(3-Benzamidobenzoyl)-3-E-[N-(pyrrol-1-yl)iminomethyl]-1H-indazole], the “% Inhibition” value [1, 3] was 25%, the “% Inhibition” value [1, 5] was 60% and the “Initial Evaluation” value [1, 5] was “++ (two pluses being judged to be approximately 25-75 % regression)”. The “% remain (HLM, 2 h)” value (in vitro; human, microsomes, 5 µM) was 97%.
In the case of `CCn1nc(C)cc1C(=O)Nc1cccc(C(=O)c2ccc3c(/C=C/c4ccccn4)n[nH]c3c2)c1.Cl` [Example 59(a), 6-[3-((1-Ethyl-3-methyl-1H-pyrazol-5-yl)carboxamido)benzoyl]-3-E-[2-(pyridin-2-yl)ethenyl]-1H-indazole hydrochloride], the “% Inhibition” value ([1]; 1 mg/ml, vehicle 0.5%CMC) is reported as 19%, the “% Inhibition” value ([1]; 10 mg/ml, vehicle C.5%CMC) is reported as 41% and the T1/2 (mouse, in vivo, po, 25 mg/kg) is reported as 1.6 h.
With `Cc1ccc2cc(NC(=O)c3ccccc3Sc3ccc4c(/C=C/c5ccccn5)n[nH]c4c3)ccc2n1` [Reference Example 33(b)] the “Initial Evaluation” value [1, 5] was “++ (two pluses being judged to be approximately 25-75 % regression)”, the T1/2 (IP, 25 mg/kg, vehicle PEG400:H2O pH 2.3 60:40) was 3.0 h and the T1/2 (PO, 50 mg/kg, vehicle PEG400:H2O pH 2.3 60:40) was 3.0 h. It also gave an inhibition at 1 µM (human FGF-R1) of 77%, an AUC (in vivo; ip, 25 mg/kg) of 11200 ng·h/mL and an AUC (in vivo; po, 50 mg/kg) of 3920 ng·h/mL.
For `Cc1ccc2cc(NC(=O)c3ccccc3Sc3ccc4c(/C=C/c5ccccc5)n[nH]c4c3)ccc2n1` [Reference Example 38(a), 6-[2-(2-Methylquinol-6-ylcarbamoyl)phenylsulfanyl]-3-E-(2-styryl)-1H-indazole], the “Initial Evaluation” value [1, 3] was “+ (one plus being detectable regression judged to be approximately 25 percent or less)”, the “Initial Evaluation” value [1, 5] was “+++ (three pluses give to retinas with near total regression (approximately 75% or greater))” and the inhibition at 1 µM (LCK tyrosine kinase) was 77%. It also gave an inhibition at 1 µM (human FGF-R1) of 74%.
In the case of `O=C(c1cccc(NC(=O)c2cccc3[nH]ccc23)c1)c1ccc2c(/C=C/c3ccccn3)n[nH]c2c1` [Reference Example 41(d), 6-[3-(indol-4-ylcarboxamido)benzoyl]-3-E-[2-(pyridin-2-yl)ethenyl]-1H-indazole], the “% Inhibition” value [1, 5] is reported as 59%, the “Initial Evaluation” value [1, 5] is reported as “+++ (three pluses give to retinas with near total regression (approximately 75% or greater))” and the IC50 [2, 6] is reported as 6.4 nM. For the same compound, the IC50 ([2]; read-out: HUVEC IC50) was 0.9 nM.
